Source: patent US11056705B2, “Organic anolyte materials for flow batteries” (THE REGENTS OF THE UNIVERSITY OF MICHIGAN, priority 2015, dated 2021)
Marks after values point to notes of the source that are not given here.

Assays:
[1] = Cyclic voltammetry (CV) of anolyte candidates in a three-electrode cell; format: physicochemical; settings: for reduction within the electrochemical window of MeCN: MeCN with NBu4BF4; for reduction potential: MeCN with NBu4BF4 (TBABF4) supporting electrolyte, versus Ag/Ag+; for reversibility of reduction: scan rate not specified; for ipc1/ipa1 (10 mV/s) / ipc1/ipa1 (100 mV/s) / E1^0: 0.01M substrate, 0.10M support; for ipc1/ipa1 (10 mV/s) / ipc1/ipa1 (100 mV/s): 2nd cycle; for E1^0: Ag/Ag+ reference, (E1c+E1a)/2, — = no anodic current observed; for reversibility of redox couple: 10 mV/s (slower scan rates); for current peak-height ratios: low potential couples in TBABF4 supports
Protocol: The electrochemistry of a series of heteroarenes was evaluated by cyclic voltammetry (CV). Electrochemical analysis was performed in the absence of oxygen and moisture. The experiments were conducted in a three-electrode cell comprised of a glassy carbon working electrode, a platinum counter electrode, and a Ag/Ag^+ reference electrode. The CV of each anolyte candidate was initially conducted in acetonitrile (MeCN) with tetrabutylammonium tetrafluoroborate (TBABF4) as the supporting electrolyte.
The reversibility of each redox couple in the CV was estimated by calculating the ratio of the diffusion-limited peak-heights of the cathodic (ipc) and anodic (ipa) currents (FIG. 2). The current peak heights were determined from the second CV cycle, and are all reported following deconvolution of the current-potential plot. […] In addition, […] conducted at slow scan rates allows for an extended lifetime of the reduced species (FIG. 2, 10 mV/s scan). With longer lifetimes, the concentration of charged anolytes that are susceptible to irreversible chemical or electrochemical reactions will decrease, and lower current responses upon re-oxidation will be observed. As a result, redox couples measured at slow scan rates generally occur with current peak-height ratios that deviate from unity to a greater extent than couples measured at faster scan rates. Thus, these techniques provide a method to rapidly assess and compare a range of anolyte materials.

[2] = as above; format: physicochemical; settings: for reversibility of redox couple: MeCN/TBABF4; for ipc1/ipa1 (10 mV/s) / ipc1/ipa1 (100 mV/s) / ipc2/ipa2 (10 mV/s): 2nd cycle; for ipc2/ipa2 (10 mV/s): second couple
[3] = MeCN/LiBF4, 0.01M substrate, 0.10M support
[4] = PC/LiBF4, 0.01M substrate, 0.10M support
[5] = PC/TBABF4, 0.01M substrate, 0.10M support
[6] = MeCN/LiBF4, 0.01M substrate, 0.10M support, (E1c+E1a)/2, — = no anodic current observed
[7] = MeCN/LiBF4, 0.01M substrate, 0.10M support, (E2c+E2a)/2
[8] = MeCN/LiBF4, CV measured at 200 mV/s scan rate

COc1ccccn1 [2-methoxypyridine, reference compound]
reduction within the electrochemical window of MeCN [1]: no reduction was observed

Cc1ccccn1 [2-methylpyridine, reference compound]
reduction within the electrochemical window of MeCN [1]: no reduction was observed

COc1ccnc(-c2cc(OC)ccn2)c1 [4,4′-methoxy bipyridine, reference compound]
reduction potential [1]: −2.6 V | reversibility of reduction ([1]; MeCN/TBABF4): reversibly

COc1ccncc1 [4-methoxypyridine, reference compound]
reduction within the electrochemical window of MeCN [1]: no reduction was observed

Cc1ccncc1 [4-methylpyridine, reference compound]
reduction within the electrochemical window of MeCN [1]: no reduction was observed

COC(=O)c1ccccn1 [Compound 1a, Methyl picolinate]
ipc1/ipa1 (10 mV/s) ([1]; MeCN/TBABF4): >5 | ipc1/ipa1 (100 mV/s) ([1]; MeCN/TBABF4): 1.83 | E1^0 ([1]; MeCN/TBABF4): −2.36 V | reversibility of redox couple ([1]; MeCN/TBABF4): completely irreversible | reversibility of redox couple ([2]; 100 mV/s): quasi-reversible

COC(=O)c1cccnc1 [Compound 2a, methyl nicotinate]
ipc1/ipa1 (10 mV/s) ([1]; MeCN/TBABF4): >5 | ipc1/ipa1 (100 mV/s) ([1]; MeCN/TBABF4): >5 | reversibility of reduction ([1]; MeCN/TBABF4): No re-oxidation current was observed

COC(=O)c1ccncc1 [Compound 3a, methyl isonicotinate]
ipc1/ipa1 (100 mV/s) ([1]; MeCN/LiBF4): >5 | ipc1/ipa1 (10 mV/s) ([1]; MeCN/TBABF4): 1.67 | ipc1/ipa1 (100 mV/s) ([1]; MeCN/TBABF4): 1.15 | E1^0 ([1]; MeCN/TBABF4): −2.16 V | reversibility of redox couple ([1]; MeCN/TBABF4): reversible | ipc1/ipa1 (10 mV/s) [2, 3]: >5 | ipc1/ipa1 (10 mV/s) [2, 4]: >5 | ipc1/ipa1 (100 mV/s) [2, 4]: >5 | E1^0 [2, 5]: −2.62 V | ipc1/ipa1 (10 mV/s) [2, 5]: 2.02 | ipc1/ipa1 (100 mV/s) [2, 5]: 1.35

CCOC(=O)c1ccncc1 [Compound 3b]
ipc1/ipa1 (10 mV/s) ([1]; MeCN/TBABF4): 1.28 | ipc1/ipa1 (100 mV/s) ([1]; MeCN/TBABF4): 1.03 | E1^0 ([1]; MeCN/TBABF4): −2.20 V

CC(C)OC(=O)c1ccncc1 [Compound 3c]
ipc1/ipa1 (10 mV/s) ([1]; MeCN/TBABF4): 1.10 | ipc1/ipa1 (100 mV/s) ([1]; MeCN/TBABF4): 1.02 | E1^0 ([1]; MeCN/TBABF4): −2.20 V

CC(C)(C)OC(=O)c1ccncc1 [Compound 3d]
ipc1/ipa1 (10 mV/s) ([1]; MeCN/TBABF4): 1.09 | ipc1/ipa1 (100 mV/s) ([1]; MeCN/TBABF4): 1.01 | E1^0 ([1]; MeCN/TBABF4): −2.24 V | reversible reduction processes ([2]; LiBF4 support, scan rates between 10 and 500 mV/s, acetonitrile or propylene carbonate): No reversible reduction processes were observed

CN(C)C(=O)c1ccncc1 [Compound 3e]
ipc1/ipa1 (10 mV/s) ([1]; MeCN/TBABF4): >5 | ipc1/ipa1 (100 mV/s) ([1]; MeCN/TBABF4): 1.18 | E1^0 ([1]; MeCN/TBABF4): −2.52 V | reversibility of redox couple ([1]; MeCN/TBABF4): irreversible | reversibility of redox couple ([2]; 100 mV/s): quasi-reversible

N#CCOC(=O)c1ccncc1 [Compound 3f]
reduction potential [1]: approximately −2.0 V | ipc1/ipa1 (10 mV/s) ([1]; MeCN/TBABF4): >5 | ipc1/ipa1 (100 mV/s) ([1]; MeCN/TBABF4): >5 | reversibility of reduction ([1]; MeCN/TBABF4): highly irreversible

O=C(OCC(F)(F)F)c1ccncc1 [Compound 3g]
reduction potential [1]: approximately −2.0 V | ipc1/ipa1 (10 mV/s) ([1]; MeCN/TBABF4): >5 | ipc1/ipa1 (100 mV/s) ([1]; MeCN/TBABF4): 1.91 | E1^0 ([1]; MeCN/TBABF4): −2.03 V | reversibility of reduction ([1]; MeCN/TBABF4): highly irreversible

O=C(OC(C(F)(F)F)C(F)(F)F)c1ccncc1 [Compound 3h]
reduction potential [1]: approximately −2.0 V | ipc1/ipa1 (10 mV/s) ([1]; MeCN/TBABF4): >5 | ipc1/ipa1 (100 mV/s) ([1]; MeCN/TBABF4): >5 | reversibility of reduction ([1]; MeCN/TBABF4): highly irreversible

COC(=O)c1cc[n+]([O-])cc1 [Compound 4a]
ipc1/ipa1 (100 mV/s) ([1]; MeCN/LiBF4): >5 | ipc1/ipa1 (10 mV/s) ([1]; MeCN/TBABF4): 1.41 | ipc1/ipa1 (100 mV/s) ([1]; MeCN/TBABF4): 1.05 | E1^0 ([1]; MeCN/TBABF4): −1.96 V | ipc1/ipa1 (10 mV/s) [2, 3]: >5

CCOC(=O)c1cc[n+]([O-])cc1 [Compound 4b]
ipc1/ipa1 (100 mV/s) ([1]; MeCN/LiBF4): >5 | ipc1/ipa1 (10 mV/s) [2, 3]: >5

CC(C)OC(=O)c1cc[n+]([O-])cc1 [Compound 4c]
ipc1/ipa1 (100 mV/s) ([1]; MeCN/LiBF4): >5 | ipc1/ipa1 (10 mV/s) [2, 3]: >5

CC(C)(C)OC(=O)c1cc[n+]([O-])cc1 [Compound 4d]
ipc1/ipa1 (100 mV/s) ([1]; MeCN/LiBF4): >5 | ipc1/ipa1 (10 mV/s) ([1]; MeCN/TBABF4): 1.17 | ipc1/ipa1 (100 mV/s) ([1]; MeCN/TBABF4): 1.00 | E1^0 ([1]; MeCN/TBABF4): −2.01 V | ipc1/ipa1 (10 mV/s) [2, 3]: >5

COC(=O)c1cc[n+]([B-](F)(F)F)cc1 [Compound 5a]
ipc1/ipa1 (100 mV/s) ([1]; MeCN/LiBF4): 1.02 | ipc1/ipa1 (10 mV/s) ([1]; MeCN/TBABF4): 1.10 | ipc1/ipa1 (100 mV/s) ([1]; MeCN/TBABF4): 1.03 | E1^0 ([1]; MeCN/TBABF4): −1.42 V | current peak-height ratios [1]: approaching unity | ipc1/ipa1 (10 mV/s) [2, 3]: 1.06 | E1^0 [2, 6]: −1.83 V

CCOC(=O)c1cc[n+]([B-](F)(F)F)cc1 [Compound 5b]
ipc1/ipa1 (100 mV/s) ([1]; MeCN/LiBF4): 1.06 | ipc1/ipa1 (10 mV/s) [2, 3]: 1.08 | E1^0 [2, 6]: −1.80 V

CC(C)OC(=O)c1cc[n+]([B-](F)(F)F)cc1 [Compound 5c]
ipc1/ipa1 (100 mV/s) ([1]; MeCN/LiBF4): 1.06 | ipc1/ipa1 (10 mV/s) [2, 3]: 1.09 | E1^0 [2, 6]: −1.80 V

CC(C)(C)OC(=O)c1cc[n+]([B-](F)(F)F)cc1 [Compound 5d]
ipc1/ipa1 (100 mV/s) ([1]; MeCN/LiBF4): 1.06 | ipc1/ipa1 (10 mV/s) ([1]; MeCN/TBABF4): 1.05 | ipc1/ipa1 (100 mV/s) ([1]; MeCN/TBABF4): 1.03 | E1^0 ([1]; MeCN/TBABF4): −1.45 V | current peak-height ratios [1]: approaching unity | re-oxidation after the second reduction ([2]; LiBF4 supporting electrolyte, 100 mV/s, scanned to more negative potentials): Minimal re-oxidation | ipc1/ipa1 (10 mV/s) [2, 3]: 1.11 | E1^0 [2, 6]: −1.84 V

CC[n+]1ccc(C(=O)OC)cc1.[I-] [Compound 6a]
ipc1/ipa1 (10 mV/s) [2, 3]: 0.99 | ipc2/ipa2 (10 mV/s) [2, 3]: 0.95 | E1^0 [2, 6]: −1.11 V | E2^0 [2, 7]: −1.85 V

CCOC(=O)c1cc[n+](CC)cc1.[I-] [Compound 6b]
ipc1/ipa1 (10 mV/s) [2, 3]: 0.98 | ipc2/ipa2 (10 mV/s) [2, 3]: 0.94 | E1^0 [2, 6]: −1.10 V | E2^0 [2, 7]: −1.86 V

CC[n+]1ccc(C(=O)OC)cc1 [Compound 7a]
high potential peak ([1]; MeCN, TBABF4 as the electrolyte): no high potential peak is observed | anodic peak with no corresponding cathodic current ([2]; MeCN, 0.1 M LiBF4, 200 mV/s, +1 V to −2.5 V): +0.4 V | ipc1/ipa1 (10 mV/s) [2, 3]: 0.98 | ipc2/ipa2 (10 mV/s) [2, 3]: 0.96 | E1^0 [2, 6]: −1.11 V | E2^0 [2, 7]: −1.88 V | E1^0 [2, 8]: −1.12 V | ipc1/ipa1 [2, 8]: 1.02^f | ipc2/ipa2 [2, 8]: 1.08^f | current peaks at positive potentials ([2]; MeCN/LiBF4, lower scanning limit −1.4 V or −0.5 V): no current peaks were observed | high potential peak ([2]; MeCN, LiTFSI as the support): only a small high potential peak

CCOC(=O)c1cc[n+](CC)cc1 [Compound 7b]
ipc1/ipa1 (10 mV/s) [2, 3]: 0.99 | ipc2/ipa2 (10 mV/s) [2, 3]: 0.96 | E1^0 [2, 6]: −1.11 V | E2^0 [2, 7]: −1.90 V

CC[n+]1ccc(C(=O)OC(C)C)cc1 [Compound 7c]
ipc1/ipa1 (10 mV/s) [2, 3]: 0.97 | ipc2/ipa2 (10 mV/s) [2, 3]: 0.95 | E1^0 [2, 6]: −1.13 V | E2^0 [2, 7]: −1.89 V

CC[n+]1ccc(C(=O)OC(C)(C)C)cc1 [Compound 7d]
ipc1/ipa1 (10 mV/s) [2, 3]: 0.99 | ipc2/ipa2 (10 mV/s) [2, 3]: 0.93 | E1^0 [2, 6]: −1.15 V | E2^0 [2, 7]: −1.93 V | E1^0 [2, 8]: −1.14 V | E2^0 [2, 8]: −1.92 V | ipc1/ipa1 [2, 8]: 1.09^f | ipc2/ipa2 [2, 8]: 1.38^f

CC[n+]1ccc(C(=O)OC)cc1 [Compound 8a]
ipc1/ipa1 (10 mV/s) [2, 3]: 0.98 | ipc2/ipa2 (10 mV/s) [2, 3]: 0.95 | E1^0 [2, 6]: −1.11 V | E2^0 [2, 7]: −1.89 V
